# In patent US20060062758A1, “Tight junction modulator peptide PN159 for enhanced mucosal delivery of therapeutic compounds” (Nastech Pharmaceutical Comapny Inc., priority 2004, published 2006):
# Non-standard residues stand in square brackets, D forms with d. No end group written: not given here.
# How the values were obtained:
# [1] = system: EpiAirway™ Cell Membrane (mucosal epithelial cell layer); assay: Transepithelial electrical resistance (TER), EpiAirway in vitro epithelial tissue model; type: cell-based; details: for Relative TER Decrease: Table 8, amino acid substitutions; for Relative TER Decrease / TER(x)/TER(159) +/− SEM* / TER(x)/TER(159) +/− SEM: relative to PN159; for TER(x)/TER(159) +/− SEM*: mean values from multiple repeats; for TER(x)/TER(159) +/− SEM: Table 6, D-amino acid substitutions
# Source text: One “kit” consists of 24 units.
# A. Respiratory airway epithelial cells form tight junctions in vivo as well as in vitro, and thereby restrict the flow of solutes across the tissue. These junctions confer a transepithelial resistance of several hundred ohms×cm^2 in excised airway tissues. In the MatTek EpiAirway™ units, the transepithelial electrical resistance (TER) is reported by the manufacturer to be routinely around 1000 ohms×cm^2. […] The porous membrane-bottomed units without cells, conversely, provide only minimal transmembrane resistance (approximately 5-20 ohms×cm^2).
# B. Accurate determinations of TER require that the electrodes of the ohmmeter be positioned over a significant surface area above and below the membrane, and that the distance of the electrodes from the membrane be reproducibly controlled. The method for TER determination recommended by MatTek and employed for all experiments herein employs an “EVOM”™ epithelial voltohmmeter and an “ENDOHM”™ tissue resistance measurement chamber from World Precision Instruments, Inc., Sarasota, Fla.
# D. Determinations of TER are made with 1.5 mL of PBS in the chamber and 350 μL of PBS in the membrane-bottomed unit being measured. The top electrode is adjusted to a position just above the membrane of a unit containing no cells (but containing 350 μL of PBS) and then fixed to ensure reproducible positioning. The resistance of a cell-free unit is typically 5-20 ohms×cm^2 (“background resistance”).
# G. The unit is gently blotted free of excess PBS on its exterior surface only before being placed into the chamber (containing a fresh 1.5 mL aliquot of PBS). An aliquot of 350 μL PBS is added to the unit before the top electrode is placed on the chamber and the TER is read on the EVOM meter.
# I. The units are read in the following sequence: all sham-treated controls, followed by all formulation-treated samples, followed by a second TER reading of each of the sham-treated controls. All TER values are reported as a function of the surface area of the tissue.
# TER was calculated as: TER=(R1−Rb)×A Where R1 is resistance of the insert with a membrane, Rb is the resistance of the blank insert, and A is the area of the membrane (0.6 cm^2). The effect of pharmaceutical formulations comprising intranasal delivery-enhancing agents, for example, permeabilizing peptides as measured by TER across the EpiAirway™ Cell Membrane (mucosal epithelial cell layer). Permeabilizing peptides are applied to the EpiAirway™ Cell Membrane at a concentration of 1.0 mM. A decrease in TER value relative to the control value (control=approximately 1000 ohms-cm^2; normalized to 100.) indicates a decrease in cell membrane resistance and an increase in mucosal epithelial cell permeability.
# The formulation pH was fixed at 4.5.
# [2] = system: EpiAirway™ Cell Membrane (mucosal epithelial cell layer); assay: Permeation kinetics across the in vitro epithelial tissue model; details: for Perm(x)/Perm(159) +/− SEM* / Perm(x)/Perm(159) +/− SEM: relative to PN159; for Perm(x)/Perm(159) +/− SEM*: mean values from multiple repeats; for permeability enhancement (in words): PN159 analogues compared with PN159; for Perm(x)/Perm(159) +/− SEM: Table 6, D-amino acid substitutions
# Method: The EpiAirway™ system was developed by MatTek Corp (Ashland, Mass.) as a model of the pseudostratified epithelium lining the respiratory tract. The epithelial cells are grown on porous membrane-bottomed cell culture inserts at an air-liquid interface, which results in differentiation of the cells to a highly polarized morphology. The apical surface is ciliated with a microvillous ultrastructure and the epithelium produces mucus (the presence of mucin has been confirmed by immunoblotting). The inserts have a diameter of 0.875 cm, providing a surface area of 0.6 cm^2. The cells are plated onto the inserts at the factory approximately three weeks before shipping. One “kit” consists of 24 units.
# A. A “kit” of 24 EpiAirway™ units can routinely be employed for evaluating five different formulations, each of which is applied to quadruplicate wells. Each well is employed for determination of permeation kinetics (4 time points), transepithelial electrical resistance (TER). An additional set of wells is employed as controls, which are sham treated during determination of permeation kinetics, but are otherwise handled identically to the test sample-containing units for determinations of transepithelial resistance and viability.
# B. In all experiments, the mucosal delivery formulation to be studied is applied to the apical surface of each unit in a volume of 100 μL, which is sufficient to cover the entire apical surface. An appropriate volume of the test formulation at the concentration applied to the apical surface (no more than 100 μL is generally needed) is set aside for subsequent determination of concentration of the active material by ELISA or other designated assay.
# D. In order to minimize potential sources of error and avoid any formation of concentration gradients, the units are transferred from one 0.9 mL-containing well to another at each time point in the study. These transfers are made at the following time points, based on a zero time at which the 100 μL volume of test material was applied to the apical surface: 15 minutes, 30 minutes, 60 minutes, and 120 minutes.
# F. At the completion of each time point, the medium is removed from the well from which each unit was transferred, and aliquotted into two tubes (one tube receives 700 μL and the other 200 μL) for determination of the concentration of permeated test material and, in the event that the test material is cytotoxic, for release of the cytosolic enzyme, lactate dehydrogenase, from the epithelium. These samples are kept in the refrigerator if the assays are to be conducted within 24 hours, or the samples are subaliquotted and kept frozen at −80° C. until thawed once for assays. Repeated freeze-thaw cycles are to be avoided.
# EIA kit (p/n S-1178(EIAH6101) was purchased from Peninsula Laboratories Inc. (Division of BACHEM, San Carlos, Calif., 800-922-1516). 17×120 mm polypropylene conical tubes (p/n 352097, Falcon, Franklin Lakes, N.J.) were used for all sample preparations. Eight standards were used for PTH quantitation. The rest of the assay procedure was the same as the kit inserts.
# The instant study was designed to evaluate the effect of PN159 itself or in combination with additional permeation enhancers on PTH permeation. The PN159 concentrations evaluated are 25, 50, and 100 μM. The additional permeation enhancers are 45 mg/ml M-β-CD, 1 mg/ml DDPC, and 1 mg/ml EDTA. Sorbitol was used as a tonicifier (146-190 mM) to adjust the osmolarity of formulations to 220 mOsm/kg. The formulation pH was fixed at 4.5. PTH was chosen as a model peptide in this example. 2 mg/ml PTH was combined with PN159 with or without additional permeation enhancers. The combination was tested using an in vitro epithelial tissue model to monitor PTH permeation, transepithelial electrical resistance (TER), and the cytotoxicity of the formulation by LDH assay.
# The effect of PN159 on permeation of MC-4RA was evaluated in this study.
substance,measurement,setting,value
H-KLALKLALKLNLKAALKLA-NH2 [PN448],Relative TER Decrease,[1],0.4
NH2-KALAALLKKAAKLLAALK-amide (H-KALAALLKKAAKLLAALK-NH2) [PN442],TER(x)/TER(159) +/− SEM*,"[1]; Table 9, hydrophobic faces",0.93 +/− 0.03
same,Perm(x)/Perm(159) +/− SEM*,"[2]; Table 9, hydrophobic faces",0.81 +/− 0.03
NH2-KALAALLKKLAKLLAALK-amide (H-KALAALLKKLAKLLAALK-NH2) [PN444],TER(x)/TER(159) +/− SEM*,"[1]; Table 9, hydrophobic faces",0.82 +/− 0.05
same,Perm(x)/Perm(159) +/− SEM*,"[2]; Table 9, hydrophobic faces",0.41 +/− 0.08
NH2-KALKLKAALALLAKLKLA-amide (H-KALKLKAALALLAKLKLA-NH2) [PN424],TER(x)/TER(159) +/− SEM*,"[1]; Table 9, hydrophobic faces",0.59 +/− 0.07
same,Perm(x)/Perm(159) +/− SEM*,"[2]; Table 9, hydrophobic faces",0.20 +/− 0.04
NH2-KLAAALLKKAKKLAAALL-amide (H-KLAAALLKKAKKLAAALL-NH2) [PN441],TER(x)/TER(159) +/− SEM*,"[1]; Table 9, hydrophobic faces",0.54 +/− 0.04
same,Perm(x)/Perm(159) +/− SEM*,"[2]; Table 9, hydrophobic faces",0.35 +/− 0.04
NH2-KLALKLALKALKAA-amide (H-KLALKLALKALKAA-NH2) [PN417],Perm(x)/Perm(159) +/− SEM*,"[2]; Example 7, length changes",0.04
NH2-KLALKLALKALKAALK-amide (H-KLALKLALKALKAALK-NH2) [PN418],TER(x)/TER(159) +/− SEM*,"[1]; Example 7, length changes",1.05 +/− 0.05
same,Perm(x)/Perm(159) +/− SEM*,"[2]; Example 7, length changes",0.64
NH2-KLALKLALKALKAALKLALK-amide (H-KLALKLALKALKAALKLALK-NH2) [PN419],TER(x)/TER(159) +/− SEM*,"[1]; Example 7, length changes",1.23 +/− 0.01
same,Perm(x)/Perm(159) +/− SEM*,"[2]; Example 7, length changes",0.74
NH2-KLALKLALKALKAALKLALKLA-amide (H-KLALKLALKALKAALKLALKLA-NH2) [PN420],TER(x)/TER(159) +/− SEM*,"[1]; Example 7, length changes",0.77 +/− 0.05
same,Perm(x)/Perm(159) +/− SEM*,"[2]; Example 7, length changes",0.24
NH2-KLALKLALKALKAALKLALKLALK-amide (H-KLALKLALKALKAALKLALKLALK-NH2) [PN421],TER(x)/TER(159) +/− SEM*,"[1]; Example 7, length changes",0.74 +/− 0.11
same,Perm(x)/Perm(159) +/− SEM*,"[2]; Example 7, length changes",0.17
NH2-KLALKLALKALKAALKLALKLALKAL-amide (H-KLALKLALKALKAALKLALKLALKAL-NH2) [PN422],TER(x)/TER(159) +/− SEM*,"[1]; Example 7, length changes",0.47 +/− 0.07
same,Perm(x)/Perm(159) +/− SEM*,"[2]; Example 7, length changes",0.07
"NH2-KLAWKLALKALKAALKLA-amide (H-KLAWKLALKALKAALKLA-NH2) [PN0425, Single Tryptophan]",Relative TER Decrease,[1],1.0
"NH2-KLAWKLALKALKAAWKLA-amide (H-KLAWKLALKALKAAWKLA-NH2) [PN0427, Two Tryptophan]",Relative TER Decrease,[1],1.0
"NH2-KLAWKLAWKALKAAWKLA-amide (KLAWKLAWKALKAAWKLA-NH2) [PN028, Three Tryptophan]",Relative TER Decrease,[1],0.7
NH2-KLaLKlALkAlkAALkLA-amide (H-KL[dA]LK[dL]AL[dK]A[dL][dK]AAL[dK]LA-NH2) [PN434],TER reduction (in words),[1]; PN159 analogues compared with PN159,null activities
same,TER(x)/TER(159) +/− SEM,[1],0.12 +/− 0.01
same,permeability enhancement (in words),[2],null activities
same,Perm(x)/Perm(159) +/− SEM,[2],0.02 +/− 0.00
"NH2-LKLLKKLLKKLLKLL-amide (H-LKLLKKLLKKLLKLL-NH2) [PN406, Leucine and Lysine rich]",Relative TER Decrease,[1],0.9
"NH2-LKTLATALTKLAKTLTTL-amide (H-LKTLATALTKLAKTLTTL-NH2) [PN443, Threonine]",Relative TER Decrease,[1],0.3
NH2-LKlLKkLlkKLLkLL-amide (H-LK[dL]LK[dK]L[dL][dK]KLL[dK]LL-NH2) [PN407],TER(x)/TER(159) +/− SEM,[1],1.08 +/− 0.01
same,Relative TER Decrease,[1],1.1
same,permeability enhancement (in words),[2],minor but statistically significant improvement on permeability
same,Perm(x)/Perm(159) +/− SEM,[2],1.20 +/− 0.05
"NH2-RLALRLALRALRAALRLA-amide (H-RLALRLALRALRAALRLA-NH2) [PN394, Argenine]",Relative TER Decrease,[1],0.7
"NH2-RLAWRLALRALRAALRLA-amide (H-RLAWRLALRALRAALRLA-NH2) [PN395, Argenine and Single Tryptophan]",Relative TER Decrease,[1],0.8
NH2-alklaaklaklalklalk-amide (ALKLAAKLAKLALKLALK; all D-amino acids; C-terminal amide) [PN408],TER(x)/TER(159) +/− SEM,[1],1.05 +/− 0.01
same,Perm(x)/Perm(159) +/− SEM,[2],1.16 +/− 0.07
NH2-klalklalkalkaalkla-amide (H-[dK][dL][dA][dL][dK][dL][dA][dL][dK][dA][dL][dK][dA][dA][dL][dK][dL][dA]-NH2; SMILES CC(C)C[C@@H](NC(=O)[C@H](N)CCCCN)C(=O)N[C@H](C)C(=O)N[C@H](CC(C)C)C(=O)N[C@H](CCCCN)C(=O)N[C@H](CC(C)C)C(=O)N[C@H](C)C(=O)N[C@H](CC(C)C)C(=O)N[C@H](CCCCN)C(=O)N[C@H](C)C(=O)N[C@H](CC(C)C)C(=O)N[C@H](CCCCN)C(=O)N[C@H](C)C(=O)N[C@H](C)C(=O)N[C@H](CC(C)C)C(=O)N[C@H](CCCCN)C(=O)N[C@H](CC(C)C)C(=O)N[C@H](C)C(N)=O) [PN393],TER(x)/TER(159) +/− SEM,[1],1.06 +/− 0.00
same,Perm(x)/Perm(159) +/− SEM,[2],1.02 +/− 0.16
